Test results published in patent US20260191986A1, “LIPOSOME-BASED DRUG CARRIER FOR IMMUNE ANTICANCER THERAPY AND METHOD FOR PRODUCING SAME” (KONKUK UNIVERSITY INDUSTRIAL COOPERATION CORP, priority 2022, published 2026).

Legend:
MDA-MB-231 cells [1] = assay: IDO1 and PD-L1 expression under IFNγ stimulation; type: cell-based, human
Excerpt: (§1) ICD-mediated immune response can invalidate the immune evasion mechanism of TME, such as overexpression of the immune checkpoint protein and IDO1. Accordingly, the expression of IDO1 and PD-L1 under IFNγ stimulation was monitored also in MDA-MB-231 and 4T1 cells.
(§2) Subsequently, it was investigated whether the DOX-induced ICD can induce the expression of IDO1 in a breast cancer mouse model as an indicator of the immune evasion mechanism in TME. In order to investigate the relationship between the expression of ICD and IDO1 in TME, the expression level of IDO1 in the tumors obtained by vaccine approach was investigated, and the result is shown in FIG. 4. […] Meanwhile, it was confirmed that the DOX-induced ICD upregulates IDO1 expression in tumor tissues via the immune evasion mechanism.

4T1 cells [2] = assay: IDO1 and PD-L1 expression under IFNγ stimulation; type: cell-based, mouse
Excerpt: as §1, §2

MDA-MB-231 cells [3] = assay: Extracellularly released ATP (ICD biomarker) after DOX or CIS; type: cell-based, human; details: different concentrations of drug
Experimental: (§3) First, the efficacy of doxorubicin (DOX) as a potent ICD inducer in a breast cancer 4T1 tumor model and cancer cells was tested by monitoring the change in the TME (tumor microenvironment). To validate the immunogenic effect of DOX, immunogenic cell death (ICD) biomarkers, such as extracellularly released ATP and cell surface expressing CRT, were monitored in breast cancer cells (human: MDA-MB-231 cells; mouse: 4T1 cells) treated with different concentrations of DOX and cisplatin (CIS), a non-ICD inducer, as a comparative control group.

4T1 cells [4] = assay: as above; type: cell-based, mouse; details: different concentrations of drug
Experimental: as §3

MDA-MB-231 cells [5] = assay: Cell surface CRT expression (ICD biomarker) after DOX or CIS; type: cell-based, human; details: different concentrations of drug
Experimental: as §3

4T1 cells [6] = assay: as above; type: cell-based, mouse; details: different concentrations of drug
Experimental: as §3

4T1 cells [7] = assay: Vaccine approach: tumor growth in Balb/c mice vaccinated with drug-treated dead 4T1 cells; type: in vivo; details: DOX 30 μM or CIS 100 μM; live 4T1 cells in opposite flank; 25 days
Experimental: (§4) The effect of DOX-induced ICD in Balb/c mice was further validated by vaccine approach. Dead 4T1 cells were subcutaneously injected into one flank of Balb/c mice together with an anticancer agent such as DOX (30 μM) or CIS (100 μM), or phosphate-buffered saline (PBS; control), twice for 2 weeks, with a 1-week interval. At two weeks after the first injection, live 4T1 cancer cells were injected into the opposite flank and the change in tumor size was evaluated for 25 days.

IDO1 [8] = assay: IDO1 expression in tumors obtained by vaccine approach; type: in vivo, Balb/c mice; details: mice vaccinated with drug-treated 4T1 cells
Experimental: as §4, §2

MDA-MB-231 cells [9] = assay: Intracellular distribution of DOX by confocal microscopy; type: cell-based, human
Experimental: (§5) In order to investigate the intracellular distribution of DOX and IDO1 siRNA delivered by the CD44/PD-L1 aptamosome, cells were treated with free DOX, Lipm [DOX/IDO1] and Aptm [DOX/IDO1] and analyzed by confocal microscopy with increasing incubation time. […] Nevertheless, a large amount of DOX was delivered easily by Aptm [DOX/IDO1] with the passage of time, and it was gradually delivered into the nucleus of MDA-MB-231 and 4T1 cells within 2 hours.

4T1 cells [10] = assay: as above; type: cell-based, mouse
Experimental: as §5

breast cancer cells = assay: DOX-induced ICD: extracellular ATP release after liposome treatment; type: cell-based
Experimental: Then, DOX-induced ICD was evaluated by monitoring extracellular ATP release and expression of cell surface CRT, which is an ICD marker, and the result is shown in FIG. 14.

MDA-MB-231 = assay: Cytotoxicity (cell survivability); type: cell-based, human; details: 24 hours and 36 hours
Experimental: (§6) Next, the cytotoxicity by an anticancer agent delivered together with Aptm [DOX/IDO1] was evaluated, and the result is shown in FIG. 16. Breast cancer cells (MDA-MB-231 and 4T1) and control group liver cells (HepG2) were treated with free DOX, Lipm [DOX/IDO1] and Aptm [DOX/IDO1] for 24 hours and 36 hours.

4T1 = assay: Cytotoxicity (cell survivability); type: cell-based, mouse; details: 24 hours and 36 hours
Experimental: as §6

[11] = tested on: control group liver cells (HepG2); assay: Cytotoxicity (cell survivability); type: cell-based; details: 24 hours and 36 hours
Experimental: as §6

4T1 tumor = assay: Anticancer efficacy in 4T1 tumor xenograft mice (tumor size); type: in vivo; details: i.v. 4 times with 4-day intervals; DOX 0.3 mg/kg, siRNA 0.35 mg/kg; day 24
Experimental: In addition, the anticancer efficacy of Aptm [DOX/IDO1] in the 4T1 tumor xenograft mice was investigated by measuring the decrease of tumor size, and the result is shown in FIG. 18. After the tumor size grew to 60-80 mm^3, the mice were divided randomly into 5 groups (5 mice per group) and each reagent was intravenously 4 times with 4-day intervals: saline (control group), free DOX (0.3 mg/kg), Lipm [DOX/IDO1], Aptm [DOX/IDO1] and Aptm [DOX/Ctr], each liposome containing the same amount of DOX (0.3 mg/kg) and siRNA (0.35 mg/kg). […] Morbidity was not observed when the mice were treated with Aptm [DOX/IDO1]. In particular, when the mice were treated with Aptm [DOX/Ctr] containing scrambled siRNA instead of IDO1 siRNA, the tumor size decreased by about 37.0% (vs. saline administration) due to decreased effect of inhibiting tumor growth. That is, the delivered IDO siRNA inhibits tumor growth by controlling TME.

TNFα = TNFα secretion in the tumor of 4T1 tumor xenograft mice; details: mouse, in vivo
Experimental: As the effect of Aptm [DOX/IDO1] on the control of tumor microenvironment (TME), cell death, ICD marker, immune cell ratio and TNF secretion in the tumor tissue of 4T1 tumor xenograft mice were evaluated. In order to investigate DOX-induced apoptotic cell death, TUNEL assay was conducted with the tumor tissues of 4T1 tumor xenograft mice.
(§7) The effective inhibition of tumor growth improves anticancer immune response by reversing immunosuppressive TME to immunoresponsive TME in vivo by Aptm [DOX/IDO1]. In order to investigate whether tumor size reduction and TME control are mediated by IDO1 siRNA delivered to the 4T1 tumor xenograft mice, the IDO1 expression level in the tumor tissue of the mice was analyzed on day 24, and the result is shown in FIG. 20. The IDO1 expression level in the tumor obtained from the mice treated with free DOX was increased as compared to the IDO1 expression level in the tumor obtained from the mice treated with saline. […] In the tumor, the IDO1 expression was increased by the administration of Aptm [DOX/Ctr] lacking IDO1 siRNA. It is thought that the increased IDO1 expression is due to the improved ICD against the tumor due to the effective delivery of DOX using the CD44/PD-L1 aptamosome. Accordingly, the inhibition of IDO1 in combination with ICD can induce anticancer immune response in the immunoresponsive TME by Aptm [DOX/IDO1].

IDO1 [12] = assay: IDO1 expression level in tumor tissue of 4T1 tumor xenograft mice; type: in vivo; details: day 24
Experimental: as §7

4T1 breast cancer cells = assay: Tumor metastasis to the lung in 4T1 tumor-bearing mice (H&E); type: in vivo; details: H&E staining of lung tissue
Excerpt: Finally, it was investigated whether the administration of Aptm [DOX/IDO1] can inhibit tumor metastasis in 4T1 tumor-bearing mice. For detection of metastatic tumors, tumor tissues from the terminal part of the lung of the mice were stained with hematoxylin and eosin (H&E), and the images are shown in FIG. 21. […] Therefore, it was confirmed that the systemic administration of Aptm [DOX/IDO1] through the blood can inhibit tumor metastasis through targeted delivery of an anticancer drug targeting breast cancer cells.

Row | Molecule | expression level of IDO1 (MDA-MB-231 cells [1]; IFNγ stimulation) | PD-L1 expression on the cell surface (MDA-MB-231 cells [1]; IFNγ-treated cells) | expression level of IDO1 (4T1 cells [2]; IFNγ stimulation) | PD-L1 expression on the cell surface (4T1 cells [2]; IFNγ-treated cells) | level of extracellularly released ATP (MDA-MB-231 cells [3]) | level of extracellularly released ATP (4T1 cells [4]) | CRT expression on the cancer cell surface (MDA-MB-231 cells [5]) | CRT expression on the cancer cell surface (4T1 cells [6]) | tumor growth after vaccination with drug-treated dead 4T1 cells (4T1 cells [7]) | IDO1 protein and mRNA expression in tumor tissues (IDO1 [8]) | time until DOX reached the nucleus (MDA-MB-231 cells [9]) | time until DOX reached the nucleus (4T1 cells [10]) | extracellular ATP release (breast cancer cells) | cell survivability (MDA-MB-231) | cell survivability (4T1) | cell survivability [11] | tumor size decrease as compared to saline (4T1 tumor) | TNFα secretion in the tumor (TNFα) | IDO1 expression level in the tumor (IDO1 [12]) | metastatic tumor in the lung (4T1 breast cancer cells)
1 | IFNγ: cytokine used to stimulate IDO1 and PD-L1 expression in cancer cells | significantly upregulated | highly expressed | significantly upregulated | highly expressed |  |  |  |  |  |  |  |  |  |  |  |  |  |  |  | 
2 | COc1cccc2c1C(=O)c1c(O)c3c(c(O)c1C2=O)C[C@@](O)(C(=O)CO)C[C@@H]3O[C@H]1C[C@H](N)[C@H](O)[C@H](C)O1 [DOX, doxorubicin] |  |  |  |  | increased gradually with the concentration of DOX | increased gradually with the concentration of DOX | increased gradually as the concentration of DOX increased | increased gradually as the concentration of DOX increased | effectively inhibited tumor growth | highest IDO1 protein and mRNA expression | up to 1 hour | up to 1 hour | A large amount of ATP was released | lowest | lowest | lowest | did not reduce tumor size enough | relatively low TNFα secretion | increased | extensive filtration of 4T1 breast cancer cells was observed in the lung
3 | N.N.[Cl][Pt][Cl] [CIS, cisplatin] |  |  |  |  | did not increase the level of extracellular ATP | did not increase the level of extracellular ATP | did not increase the CRT expression on the cancer cell surface | did not increase the CRT expression on the cancer cell surface | did not inhibit tumor growth significantly | increased expression of IDO1 protein and mRNA |  |  |  |  |  |  |  |  |  | 
